In one experiment the target is μ-opioid receptor. Also noted: method as in Lucchi et al., 1982. Conditions: rat striatum; ref Lucchi et al., 1982; read-out: IC50, displacement of [met]-enkephalin; cited from earlier work.
Experiment [1] addresses T1, human μ-opioid receptor (Homo sapiens, UniProt P35372).
T1 construct: host or cells: CHO-K1
Nature of the experiment: cell-based. Conditions: CHO-K1 cells, forskolin 20 μM, 30 min incubation; read-out: EC50, activation of μ-opioid receptor (reduction of intracellular cAMP). From the text:
The intrinsic activity of the ligands was studied using commercially cell-based assays, composed by recombinant CHO-K1 cells that overexpress only the human μ-opioid receptor, detecting the levels of second messengers that reflect the activation of this receptor. To assess the activation of the μ-opioid receptor through the recruitment of G protein signaling pathway, we used the cyclic adenosine monophosphate (cAMP) Hunter® eXpress G protein-coupled receptor (GPCR) Assay (DiscoverX, Freemont, CA, USA) following the manufacturer instructions. In this system, the endogenous cAMP competes with an exogenous cAMP coupled to a truncated β-galactosidase fragment (provided by the assay) for binding to a cAMP antibody. Only the unbound exogenous cAMP-β-galactosidase fragment binds to a complementary β-galactosidase fragment to form the active enzyme. […] Control cells were incubated only with forskolin. The resulting luminescence was measured with a microplate reader Synergy HT (Biotek, Winooski, VT, USA) or a microplate reader SpectraMax M3 (Molecular Devices, Sunnyvale, CA, USA).
(§1) The fitting of the data to the correlation was assessed by its corresponding coefficient of determination (R^2), using GraphPad Prism (San Diego, CA, USA).

The target of experiment [2] is T1, human μ-opioid receptor. The experiment is classed as cell-based. The following applies: all tested concentrations; listed as racemic SAL.
Source text: To assess the activation of the μ-opioid receptor through the recruitment of the β-arrestin signaling pathway, we used a PathHunter® eXpress β-Arrestin GPCR chemiluminescent assay (DiscoverX) following the manufacturer instructions. In this system, the human μ-opioid receptor is fused to a small fragment of β-galactosidase (PK) and co-expressed in cells expressing a fusion protein of β-arrestin and the complementary fragment of β-galactosidase (EA). Activation of the μ-opioid receptor stimulates binding of β-arrestin to the PK-tagged receptor allowing the complementation of the two enzyme fragments of β-galactosidase. This action leads to an activation of the enzyme that can be measured using a chemiluminescent reagent resulting in luminescence, which is proportional to the recruitment of β-arrestin. […] The resulting luminescence was determined with a microplate reader Synergy HT (Biotek).
as §1

“Also recorded” adds a separate entry of the source.

Results on 3 compounds are retold here after PMC5253357, “Racemic Salsolinol and its Enantiomers Act as Agonists of the μ-Opioid Receptor by Activating the Gi Protein-Adenylate Cyclase Pathway” (Frontiers in Behavioral Neuroscience, 2017).

One may read the IC50 as the concentration that inhibits the measured activity by half. As a reminder, the EC50 is the concentration needed to bring the measured effect to its halfway point.

T1 sequence (P35372 whole entry): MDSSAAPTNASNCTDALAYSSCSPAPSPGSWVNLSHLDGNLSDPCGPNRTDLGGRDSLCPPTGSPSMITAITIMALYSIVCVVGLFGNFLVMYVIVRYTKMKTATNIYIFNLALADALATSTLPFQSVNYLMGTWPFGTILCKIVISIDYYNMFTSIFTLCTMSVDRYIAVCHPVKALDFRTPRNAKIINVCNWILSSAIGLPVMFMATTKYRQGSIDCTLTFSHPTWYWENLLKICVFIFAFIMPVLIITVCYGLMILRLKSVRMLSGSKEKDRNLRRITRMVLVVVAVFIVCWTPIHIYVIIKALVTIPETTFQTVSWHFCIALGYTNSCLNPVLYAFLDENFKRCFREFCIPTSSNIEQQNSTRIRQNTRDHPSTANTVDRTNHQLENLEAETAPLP

In the case of `CC1NCCc2cc(O)c(O)cc21` (racemic) [(R/S)-SAL, 1-methyl-1,2,3,4-tetrahydro-6,7-dihydroxy-isoquinoline], the IC50 at μ-opioid receptor is 10 µM. The EC50 on human μ-opioid receptor [1] was 20 µM. For the same compound, the “Activation of β-arrestin signaling pathway (in words)” value at human μ-opioid receptor [2] is “did not promote the recruitment of β-arrestin; also recorded: unable to activate the β-arrestin signaling pathway; also recorded: does not induce the recruitment of β-arrestin”.

Regarding `C[C@H]1NCCc2cc(O)c(O)cc21` [(R)-SAL], at human μ-opioid receptor [1], the EC50 stood at 600 µM.

For `C[C@@H]1NCCc2cc(O)c(O)cc21` [(S)-SAL], at human μ-opioid receptor [1], the EC50 was determined as 9 µM.
